Assay results from PMC12311865, “In Vitro Evaluation of the Potential Interactions of Zearalenone-14-sulfate and Zearalenone-14-glucuronide with Human Cytochrome P450 Enzymes, Organic Anion Transporting Polypeptides, and ATP-Binding Cassette Multidrug Transporters” (ACS Omega, 2025).
Like-named read-outs stand apart in the source and are kept apart here.

Experiments:
CYP1A2 = molecular target: T1, CYP1A2 (Homo sapiens, UniProt P05177); conditions: each 20 μM; 0.2 vol % DMSO
T1 sequence (P05177 1-516): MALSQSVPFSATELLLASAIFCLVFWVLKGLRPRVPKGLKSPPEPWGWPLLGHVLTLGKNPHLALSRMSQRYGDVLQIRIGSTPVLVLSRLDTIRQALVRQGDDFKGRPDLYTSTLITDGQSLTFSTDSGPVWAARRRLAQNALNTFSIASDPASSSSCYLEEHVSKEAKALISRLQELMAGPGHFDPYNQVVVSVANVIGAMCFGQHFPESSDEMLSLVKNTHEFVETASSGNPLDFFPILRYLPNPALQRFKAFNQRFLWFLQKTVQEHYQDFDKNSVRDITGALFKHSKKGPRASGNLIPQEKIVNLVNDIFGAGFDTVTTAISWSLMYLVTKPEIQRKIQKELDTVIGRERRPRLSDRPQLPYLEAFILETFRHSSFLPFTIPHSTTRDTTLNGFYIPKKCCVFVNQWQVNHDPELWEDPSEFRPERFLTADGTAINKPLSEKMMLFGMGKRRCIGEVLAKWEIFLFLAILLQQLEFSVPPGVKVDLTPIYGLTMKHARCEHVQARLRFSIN
Protocol: We applied 10 mM stock solutions of mycotoxins (dissolved in DMSO), and the samples (including controls and positive controls) contained uniformly 0.2 vol % DMSO.

OATP1B1 = molecular target: T2, OATP1B1 (Homo sapiens, UniProt Q9Y6L6); experiment: OATP1B1-mediated pyranine uptake in overexpressing A431 cells; assay type: cell-based
T2 construct: expressed in transfected cells; host or cells: A431
T2 sequence (Q9Y6L6 1-691): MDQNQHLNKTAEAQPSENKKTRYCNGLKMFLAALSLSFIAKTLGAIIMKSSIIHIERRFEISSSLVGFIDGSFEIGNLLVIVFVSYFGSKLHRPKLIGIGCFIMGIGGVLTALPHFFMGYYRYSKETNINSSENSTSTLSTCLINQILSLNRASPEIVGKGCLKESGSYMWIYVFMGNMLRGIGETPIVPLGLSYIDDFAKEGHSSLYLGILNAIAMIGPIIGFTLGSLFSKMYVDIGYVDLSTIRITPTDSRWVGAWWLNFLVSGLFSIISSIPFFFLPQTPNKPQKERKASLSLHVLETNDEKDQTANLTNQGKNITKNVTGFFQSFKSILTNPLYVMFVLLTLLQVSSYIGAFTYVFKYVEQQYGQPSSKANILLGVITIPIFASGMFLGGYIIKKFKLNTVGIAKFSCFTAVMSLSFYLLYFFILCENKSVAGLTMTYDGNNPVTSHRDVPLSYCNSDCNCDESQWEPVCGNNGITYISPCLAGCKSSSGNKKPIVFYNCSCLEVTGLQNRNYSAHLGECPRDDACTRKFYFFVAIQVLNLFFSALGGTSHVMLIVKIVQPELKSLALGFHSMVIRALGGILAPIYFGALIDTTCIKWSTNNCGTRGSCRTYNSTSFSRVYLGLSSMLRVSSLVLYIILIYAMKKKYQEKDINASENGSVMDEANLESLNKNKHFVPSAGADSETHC
Protocol: (§1) The human epidermoid carcinoma cell (A431) overexpressing OATP1A2, OATP1B1, OATP1B3, or OATP2B1 transporters and their mock control cells were generated previously as described. , Cell culture was maintained in DMEM supplemented with 10% fetal bovine serum, 2 mM L-glutamine, 100 units/mL penicillin, and 100 μg/mL streptomycin at 37 °C and 5% CO2.
(§2) The inhibitory effects of mycotoxins (Z14S and Z14GA) were examined using indirect fluorescence assays, where pyranine and SR101 were used as fluorescent substrates. , A431 cells overexpressing OATP1A2, OATP1B1/3, or OATP2B1 and their mock-transfected controls were seeded at a density of 8 × 10^4 cells/well onto 96-well plates and incubated for 18–22 h prior to transport measurements. The next day, plated cells were washed three times with 200 μL of PBS (phosphate-buffered saline, pH 7.4) and preincubated with 50 μL of transport buffer (pH 5.5; 125 mM NaCl, 4.8 mM KCl, 1.2 mM CaCl2, 1.2 mM KH2PO4, 12 mM MgSO4, 25 mM MES, and 5.6 mM glucose) with or without increasing concentrations of the mycotoxins tested (0.001–20 μM) for 5 min at 37 °C. The transport inhibition measurements were initiated by adding 50 μL of transport buffer containing the proper fluorescent substrate SR101 (0.5 μM, OATP1A2) or pyranine (10 μM for OATP1B1 or 20 μM for OATP1B3 and OATP2B1). After 10 min (OATP1A2), 15 min (OATP1B1 and OATP2B1), or 30 min (OATP1B3) incubation, the transport was terminated by washing the cells three times with ice-cold PBS. Regarding the individual OATP assays, we applied different incubation times to keep the substrate uptake in the linear range, , avoiding substrate depletion or saturation effects, as it is indispensable for the accurate assessment. Using an Enspire plate reader (PerkinElmer, Waltham, MA), the fluorescence was measured at excitation/emission wavelengths of 460/510 nm (pyranine) or 586/605 nm (SR101).
(§3) OATP-mediated transport was obtained by subtracting the activity of the mock control cells from the activity of the OATP-expressing cells. The transport activity (%) of the OATPs was calculated by comparing the fluorescence signal obtained in the absence of the compounds tested (set to 100%).

OATP2B1 = molecular target: T3, OATP2B1 (Homo sapiens, UniProt O94956); experiment: OATP2B1-mediated pyranine uptake in overexpressing A431 cells; assay type: cell-based
T3 construct: expressed in transfected cells; host or cells: A431
T3 sequence (O94956 1-709): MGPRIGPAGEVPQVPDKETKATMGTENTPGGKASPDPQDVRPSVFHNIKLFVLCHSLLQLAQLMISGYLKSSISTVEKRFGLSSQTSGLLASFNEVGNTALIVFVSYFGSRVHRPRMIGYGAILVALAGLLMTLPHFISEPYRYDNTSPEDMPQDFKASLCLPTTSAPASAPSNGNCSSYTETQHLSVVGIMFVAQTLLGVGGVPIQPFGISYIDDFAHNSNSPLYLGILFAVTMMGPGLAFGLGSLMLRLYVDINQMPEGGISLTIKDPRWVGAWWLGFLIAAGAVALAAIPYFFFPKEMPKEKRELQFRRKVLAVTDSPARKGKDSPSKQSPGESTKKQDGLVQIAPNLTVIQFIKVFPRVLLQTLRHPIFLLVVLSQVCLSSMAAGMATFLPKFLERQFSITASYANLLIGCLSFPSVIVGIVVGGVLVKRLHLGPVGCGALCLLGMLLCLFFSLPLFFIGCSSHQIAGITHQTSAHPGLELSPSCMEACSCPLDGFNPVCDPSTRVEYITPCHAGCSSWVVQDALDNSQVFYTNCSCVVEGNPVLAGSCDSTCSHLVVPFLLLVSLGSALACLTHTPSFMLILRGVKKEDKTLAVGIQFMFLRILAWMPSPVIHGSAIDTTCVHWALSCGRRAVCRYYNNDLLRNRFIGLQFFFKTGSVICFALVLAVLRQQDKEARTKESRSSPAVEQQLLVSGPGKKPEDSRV
Protocol: as §1, §2, §3

[1] = 20 μM, pyranine substrate, A431 cells

## C[C@H]1CCCC(=O)CCC/C=C/c2cc(OS(=O)(=O)O)cc(O)c2C(=O)O1 [Z14S, zearalenone-14-sulfate]
CYP1A2
  inhibition of CYP1A2 activity: did not influence
OATP1B1
  IC50: 270 nM
OATP1B1; [1]
  decrease in OATP1B1 transport activity: 80–100%
OATP1B1; ratio of IC50 values vs ZEN
  stronger inhibition on OATP1B1 compared to ZEN: more than 30 fold
OATP2B1
  IC50: 340 nM
OATP2B1; 5 μM, pyranine substrate
  effect on OATP2B1-mediated dye uptake: completely abolished
OATP2B1; [1]
  decrease in OATP2B1 transport activity: 80–100%
OATP2B1; ratio of IC50 values vs ZEN
  stronger inhibition on OATP2B1 compared to ZEN: approximately 7 fold

## C[C@H]1CCCC(=O)CCC/C=C/c2cc(O[C@@H]3O[C@H](C(=O)O)[C@@H](O)[C@H](O)[C@H]3O)cc(O)c2C(=O)O1 [Z14GA, Zearalenone-14-glucuronide]
CYP1A2
  inhibition of CYP1A2 activity: no effects
OATP1B1; pyranine 10 μM, 15 min, A431 cells, read-out: IC50 for OATP1B1
  IC50: > 20000 nM
OATP2B1; pyranine 20 μM, 15 min, A431 cells, read-out: IC50 for OATP2B1
  IC50: 1100 nM
